Results on 7 compounds are retold here after ChEMBL document CHEMBL1201862, “PubChem BioAssay data set” (2004).

Calls of active or inactive are those of the source.

One test addresses T1, Streptokinase A (Streptococcus pyogenes serotype M1, UniProt P10520).
T1 sequence (P10520 whole entry): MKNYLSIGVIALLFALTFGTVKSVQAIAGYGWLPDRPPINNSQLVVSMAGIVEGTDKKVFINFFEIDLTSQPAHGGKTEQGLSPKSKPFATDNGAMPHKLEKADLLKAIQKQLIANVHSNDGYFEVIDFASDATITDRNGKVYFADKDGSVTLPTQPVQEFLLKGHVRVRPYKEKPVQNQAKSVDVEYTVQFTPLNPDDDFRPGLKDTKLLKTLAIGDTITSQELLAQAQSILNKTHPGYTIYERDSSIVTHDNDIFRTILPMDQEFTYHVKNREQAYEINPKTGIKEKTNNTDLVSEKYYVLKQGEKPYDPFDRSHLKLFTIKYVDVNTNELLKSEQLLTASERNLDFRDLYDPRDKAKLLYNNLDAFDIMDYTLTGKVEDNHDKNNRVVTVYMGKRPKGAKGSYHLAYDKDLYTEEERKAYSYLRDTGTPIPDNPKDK
Nature of the test: S. pyogenes streptokinase expression inhibitors, potency, dose response, plasminogen activation absorbance, OD405 (AID 1914).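 Note: secreted streptokinase activity via plasminogen activation per viability signal from cell pellet.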 In kind it is functional, Streptococcus pyogenes M1 GAS.

Test [1] concerns Streptococcus sp. 'group A'. In words: growth inhibition of control SK(-) GAS strain, dose response, counter-screen for streptokinase expression inhibitor project, luminescence, kanamycin, BacTiterGlo, confirmation (AID 1900). Format: functional, organism-based. (Counterscreens check selectivity or assay interference.)
Test [2] deals with Peroxisome proliferator-activated receptor gamma/Nuclear receptor coactivator 2 (Homo sapiens, UniProt P37231). Nature of the test: TR-FRET dose response biochemical High Throughput Screening assay for agonists of the steroid receptor coactivator 2 (SRC-2) recruitment by the peroxisome proliferator-activated receptor gamma (PPAR gamma): non-selective agonists. [Related pubchem assays: 1297, 1032 ]. Format: functional.
Sequence of Peroxisome proliferator-activated receptor gamma/Nuclear receptor coactivator 2 (P37231 whole entry): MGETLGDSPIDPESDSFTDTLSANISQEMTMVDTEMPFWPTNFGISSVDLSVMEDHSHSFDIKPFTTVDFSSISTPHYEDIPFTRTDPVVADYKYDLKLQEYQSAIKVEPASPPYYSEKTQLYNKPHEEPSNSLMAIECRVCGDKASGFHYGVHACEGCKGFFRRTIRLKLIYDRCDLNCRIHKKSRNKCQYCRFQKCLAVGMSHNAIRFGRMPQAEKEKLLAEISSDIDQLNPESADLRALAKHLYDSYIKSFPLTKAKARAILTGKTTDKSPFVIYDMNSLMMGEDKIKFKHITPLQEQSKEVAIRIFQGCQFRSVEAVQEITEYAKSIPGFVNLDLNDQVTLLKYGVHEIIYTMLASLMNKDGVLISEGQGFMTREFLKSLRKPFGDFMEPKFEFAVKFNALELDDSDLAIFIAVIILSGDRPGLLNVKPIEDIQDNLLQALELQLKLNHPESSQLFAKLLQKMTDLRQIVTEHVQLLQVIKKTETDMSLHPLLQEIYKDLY
Sequence of Peroxisome proliferator-activated receptor gamma/Nuclear receptor coactivator 2 (Q15596 whole entry, further chain): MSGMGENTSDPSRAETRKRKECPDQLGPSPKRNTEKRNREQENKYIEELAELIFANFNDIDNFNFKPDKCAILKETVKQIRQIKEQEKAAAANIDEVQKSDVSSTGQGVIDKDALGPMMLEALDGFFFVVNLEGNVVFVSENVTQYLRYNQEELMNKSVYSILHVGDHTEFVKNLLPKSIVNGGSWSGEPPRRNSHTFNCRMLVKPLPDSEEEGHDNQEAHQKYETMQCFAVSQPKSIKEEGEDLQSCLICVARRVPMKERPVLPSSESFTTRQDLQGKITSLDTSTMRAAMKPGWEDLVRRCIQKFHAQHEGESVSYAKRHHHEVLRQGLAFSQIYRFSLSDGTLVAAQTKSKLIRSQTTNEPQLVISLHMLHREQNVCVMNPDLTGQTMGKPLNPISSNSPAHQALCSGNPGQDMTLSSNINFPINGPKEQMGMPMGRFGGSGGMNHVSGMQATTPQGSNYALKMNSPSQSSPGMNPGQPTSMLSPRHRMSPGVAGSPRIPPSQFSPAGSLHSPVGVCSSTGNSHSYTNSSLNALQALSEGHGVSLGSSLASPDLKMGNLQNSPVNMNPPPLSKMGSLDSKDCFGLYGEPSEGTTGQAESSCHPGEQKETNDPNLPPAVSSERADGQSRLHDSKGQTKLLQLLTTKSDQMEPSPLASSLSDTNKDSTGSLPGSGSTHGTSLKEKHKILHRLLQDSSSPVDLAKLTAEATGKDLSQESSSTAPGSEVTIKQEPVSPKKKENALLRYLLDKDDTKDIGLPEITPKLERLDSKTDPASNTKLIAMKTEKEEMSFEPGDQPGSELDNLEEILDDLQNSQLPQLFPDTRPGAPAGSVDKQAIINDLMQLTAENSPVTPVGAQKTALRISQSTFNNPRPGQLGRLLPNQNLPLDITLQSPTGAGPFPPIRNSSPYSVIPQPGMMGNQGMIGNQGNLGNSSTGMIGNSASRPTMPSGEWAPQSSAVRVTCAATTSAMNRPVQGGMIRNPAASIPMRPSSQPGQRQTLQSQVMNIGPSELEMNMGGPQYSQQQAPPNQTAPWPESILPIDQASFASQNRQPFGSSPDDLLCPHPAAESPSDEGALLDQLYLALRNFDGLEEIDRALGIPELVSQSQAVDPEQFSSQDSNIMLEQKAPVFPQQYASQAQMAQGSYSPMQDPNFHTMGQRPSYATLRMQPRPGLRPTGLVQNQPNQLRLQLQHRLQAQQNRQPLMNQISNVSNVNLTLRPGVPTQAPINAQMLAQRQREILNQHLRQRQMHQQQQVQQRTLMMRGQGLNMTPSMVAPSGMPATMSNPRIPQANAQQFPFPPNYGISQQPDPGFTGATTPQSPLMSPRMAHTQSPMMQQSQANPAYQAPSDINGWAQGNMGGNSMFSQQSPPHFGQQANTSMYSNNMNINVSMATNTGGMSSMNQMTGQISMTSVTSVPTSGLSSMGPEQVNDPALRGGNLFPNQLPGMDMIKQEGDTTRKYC

In test [3] the target is Peroxisome proliferator-activated receptor gamma/Nuclear receptor coactivator 1 (Homo sapiens, UniProt P37231). Nature of the test: TR-FRET dose response biochemical High Throughput Screening assay for agonists of the steroid receptor coactivator 1 (SRC-1) recruitment by the peroxisome proliferator-activated receptor gamma (PPAR gamma): non-selective agonists. [Related pubchem assays (depositor defined):AID1300, AID1808, AID504735, AID631]. In kind it is protein assay. (In TR-FRET formats the signal depends on donor and acceptor labels being close together.)
Sequence of Peroxisome proliferator-activated receptor gamma/Nuclear receptor coactivator 1 (P37231 whole entry): as the sequence (P37231 whole entry) above
Sequence of Peroxisome proliferator-activated receptor gamma/Nuclear receptor coactivator 1 (Q15788 whole entry, further chain): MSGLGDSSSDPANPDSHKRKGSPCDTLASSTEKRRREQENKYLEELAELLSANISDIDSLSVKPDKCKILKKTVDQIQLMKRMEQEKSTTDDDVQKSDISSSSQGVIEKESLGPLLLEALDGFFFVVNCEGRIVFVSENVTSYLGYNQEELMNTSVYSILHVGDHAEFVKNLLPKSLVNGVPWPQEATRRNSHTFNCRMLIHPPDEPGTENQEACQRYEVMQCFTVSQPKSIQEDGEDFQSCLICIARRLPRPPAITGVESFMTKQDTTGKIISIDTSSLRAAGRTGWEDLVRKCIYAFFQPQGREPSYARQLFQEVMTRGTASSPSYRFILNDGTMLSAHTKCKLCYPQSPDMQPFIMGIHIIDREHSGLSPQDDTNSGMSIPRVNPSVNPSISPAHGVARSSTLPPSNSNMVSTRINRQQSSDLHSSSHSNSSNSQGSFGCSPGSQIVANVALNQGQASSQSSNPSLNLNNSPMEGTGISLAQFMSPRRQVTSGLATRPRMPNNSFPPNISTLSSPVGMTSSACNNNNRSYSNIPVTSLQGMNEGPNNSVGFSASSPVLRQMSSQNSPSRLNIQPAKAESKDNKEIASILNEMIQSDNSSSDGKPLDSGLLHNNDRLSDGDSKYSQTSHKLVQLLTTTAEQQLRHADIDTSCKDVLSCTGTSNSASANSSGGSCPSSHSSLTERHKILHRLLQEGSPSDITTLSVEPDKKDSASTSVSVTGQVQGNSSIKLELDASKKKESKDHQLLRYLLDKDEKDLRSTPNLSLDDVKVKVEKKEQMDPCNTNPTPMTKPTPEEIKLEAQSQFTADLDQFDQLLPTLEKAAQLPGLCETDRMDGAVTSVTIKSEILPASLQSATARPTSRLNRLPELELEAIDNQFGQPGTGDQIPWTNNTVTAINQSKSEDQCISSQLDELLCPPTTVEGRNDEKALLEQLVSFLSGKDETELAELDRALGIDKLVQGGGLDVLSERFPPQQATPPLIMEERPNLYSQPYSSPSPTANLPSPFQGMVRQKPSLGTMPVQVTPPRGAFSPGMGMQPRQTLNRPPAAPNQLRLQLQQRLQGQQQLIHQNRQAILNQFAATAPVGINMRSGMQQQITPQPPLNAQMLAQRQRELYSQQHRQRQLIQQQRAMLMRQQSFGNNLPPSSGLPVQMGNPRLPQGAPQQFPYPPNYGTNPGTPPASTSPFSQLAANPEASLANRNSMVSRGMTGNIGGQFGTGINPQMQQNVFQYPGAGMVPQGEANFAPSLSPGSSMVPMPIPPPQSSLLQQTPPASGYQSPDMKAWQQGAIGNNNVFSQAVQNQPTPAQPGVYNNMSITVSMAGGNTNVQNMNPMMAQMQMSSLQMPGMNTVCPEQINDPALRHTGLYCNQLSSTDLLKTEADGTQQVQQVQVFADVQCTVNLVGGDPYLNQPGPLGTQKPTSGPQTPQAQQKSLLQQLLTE

The next test deals with Streptococcus. Nature of the test: Group A Streptococcus viability loss, dose response, counter-screen for streptokinase expression inhibitor project, luminescence, BacTiterGlo (AID 1915).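 Note: potency for reduction of bacterial viability or growth.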 Format: functional, organism-based.
Test [4] concerns the target Peroxisome proliferator-activated receptor gamma/Nuclear receptor coactivator 3 (Homo sapiens, UniProt P37231). Nature of the test: TR-FRET dose response biochemical High Throughput Screening assay for agonists of the steroid receptor coactivator 3 (SRC-3) recruitment by the peroxisome proliferator-activated receptor gamma (PPAR gamma): non-selective agonists. [Related pubchem assays: 1301 (Confirmation screen.), 1048 (Primary screen.)]. In kind it is functional.

In test [5] the test system is HEK293. In words: cells. The conditions noted are these: Homo sapiens. In kind it is functional, cell-based.
Test [6] concerns HEK293. In words: NOD1 signaling inhibitors, primary screen, cell-based, luminescence, uHTS (AID 1578). In kind it is functional. The conditions noted are these: Homo sapiens.
The target of test [7] is Nucleotide-binding oligomerization domain-containing protein 2 (Homo sapiens, UniProt Q9HC29). Nature of the test: NOD2 signaling inhibitors, cell-based, luminescence, uHTS, HEK293 (AID 1566). Format: functional.
For test [8], the system named is BJ. Nature of the test: cells. As to conditions: Homo sapiens. Format: functional, cell-based.
The target in a further test is Nonstructural protein 1 (Influenza A virus, UniProt Q194T2). Format: functional, Influenza A virus (A/California/07/2009(H1N1)).
Test [9] concerns HEK293. Nature of the test: NOD2 signaling inhibitors in MDP-stimulated cells, cell-based, uHTS, luminescence (AID 2001). In kind it is functional. As to conditions: Homo sapiens.
Test [10] can be described thus: cytotoxicity toward DRD oncogenic fibroblasts, dose response, cell-based, non-viral oncogenic, luminescence (AID 1934). In kind it is functional. The conditions noted are these: Homo sapiens.
Test [11] concerns HEK293. In words: cells. Format: functional, cell-based. The conditions noted are these: Homo sapiens. The source holds these as a separate data set.
Test [12] concerns BJ. Nature of the test: cytotoxicity toward BJ-TERT fibroblasts, dose response, cell-based, RAS-independent, luminescence (AID 1933). As to conditions: Homo sapiens. Format: functional.
Test [13] relates to HEK293. Nature of the test: cells. The conditions noted are these: Homo sapiens. Format: functional, cell-based. This is another data set of the same source.
In test [14] the test system is BJ. In words: cytotoxicity toward BJ-TERT-LT-ST fibroblasts, dose response, cell-based, RAS-independent, luminescence (AID 1935).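 Note: BJ fibroblasts immortalized with TERT plus LT and ST oncogenes.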 Format: functional. The conditions noted are these: Homo sapiens.
The target of test [15] is T2, Ubiquitin-conjugating enzyme E2 N (Homo sapiens, UniProt P61088).
T2 sequence (P61088 whole entry): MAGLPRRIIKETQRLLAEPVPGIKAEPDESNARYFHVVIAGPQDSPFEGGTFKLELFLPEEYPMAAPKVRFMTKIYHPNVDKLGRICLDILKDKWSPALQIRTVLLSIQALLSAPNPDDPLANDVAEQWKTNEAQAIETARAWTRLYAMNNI
In kind it is functional.

The next test concerns the target T3, Bcl-2-related protein A1 (Mus musculus, UniProt Q07440).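 Note: confirmatory dose–response counterscreen on Bfl-1, used to check hits from a UBC13 polyubiquitin inhibitor campaign.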
T3 sequence (Q07440 whole entry): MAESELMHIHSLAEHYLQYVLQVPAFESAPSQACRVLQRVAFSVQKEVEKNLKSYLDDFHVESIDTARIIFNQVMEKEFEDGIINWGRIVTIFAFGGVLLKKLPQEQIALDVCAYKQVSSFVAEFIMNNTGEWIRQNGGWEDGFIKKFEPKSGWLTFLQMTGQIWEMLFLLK
Format: functional.

Test [16] can be described thus: inhibitors of firefly luciferase expression or activity, dose response, H4 neuroglioma cells, luminescence (AID 1990). In kind it is functional, cell-based.
In test [17] the target is G-protein coupled receptor 55 (Homo sapiens, UniProt Q9Y2T6). Nature of the test: GPR55 agonists via beta-arrestin recruitment, primary screen, imaging, U2OS cells, beta-arrestin-GFP redistribution (AID 1961). Format: functional. In general terms: Arrestin recruitment assays detect the binding of arrestin to an activated receptor.
Sequence of G-protein coupled receptor 55 (Q9Y2T6 whole entry): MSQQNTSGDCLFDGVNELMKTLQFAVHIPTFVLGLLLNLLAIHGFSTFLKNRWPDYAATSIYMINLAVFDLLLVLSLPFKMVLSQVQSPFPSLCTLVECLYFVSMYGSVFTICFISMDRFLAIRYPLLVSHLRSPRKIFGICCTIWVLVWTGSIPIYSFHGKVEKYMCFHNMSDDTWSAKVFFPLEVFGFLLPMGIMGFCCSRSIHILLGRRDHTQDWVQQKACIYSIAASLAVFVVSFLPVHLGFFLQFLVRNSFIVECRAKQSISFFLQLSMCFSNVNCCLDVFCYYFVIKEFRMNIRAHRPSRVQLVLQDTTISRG
Test [18] in a line: NIH-3T3 fibroblast cytotoxicity, dose response, cytotoxicity control, cell-based, fluorescence, Alamar Blue, secondary assay (AID 2327).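 Note: NIH-3T3 mouse fibroblasts cultured with fluconazole at 8 µg/mL.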 In kind it is functional.
Test [19] in a line: Luminescence Cell-Based Dose Response HTS to Identify Inhibitors of 5'UTR Stem-Loop Driven Prion Protein mRNA Translation in H4 Neuroglioblastoma Cells. [Related pubchem assays: 1827 (Project Summary), 1813 (Primary HTS)]. In kind it is functional.
A short description of test [20]: microbe, parasite or virus in culture. The conditions noted are these: Mycobacterium tuberculosis. Format: functional.
In test [21] the target is T2, Ubiquitin-conjugating enzyme E2 N. Format: functional. This is another data set of the same source.
Test [22] can be described thus: C. albicans growth with fluconazole, confirmation, fluorescence, retest (AID 2467). Format: functional, cell-based.
Test [23] is described as follows: inhibitors of SNCA 5'UTR-driven reporter translation, confirmation, H4 neuroglioma cells, luminescence (AID 1988). Format: functional, cell-based.
For test [24], the target named is T4, Polyadenylate-binding protein 1 (Homo sapiens, UniProt P11940). In words: PABP1 MLLE–PAM2 interaction inhibitors, dose response, miRNA deadenylation inhibitor project, biochemical, fluorescence polarization, Cy5-PAM2 peptide, secondary (AID 602260). In kind it is functional. As to conditions: read-out: IC50_Mean.
T4 sequence (P11940 whole entry): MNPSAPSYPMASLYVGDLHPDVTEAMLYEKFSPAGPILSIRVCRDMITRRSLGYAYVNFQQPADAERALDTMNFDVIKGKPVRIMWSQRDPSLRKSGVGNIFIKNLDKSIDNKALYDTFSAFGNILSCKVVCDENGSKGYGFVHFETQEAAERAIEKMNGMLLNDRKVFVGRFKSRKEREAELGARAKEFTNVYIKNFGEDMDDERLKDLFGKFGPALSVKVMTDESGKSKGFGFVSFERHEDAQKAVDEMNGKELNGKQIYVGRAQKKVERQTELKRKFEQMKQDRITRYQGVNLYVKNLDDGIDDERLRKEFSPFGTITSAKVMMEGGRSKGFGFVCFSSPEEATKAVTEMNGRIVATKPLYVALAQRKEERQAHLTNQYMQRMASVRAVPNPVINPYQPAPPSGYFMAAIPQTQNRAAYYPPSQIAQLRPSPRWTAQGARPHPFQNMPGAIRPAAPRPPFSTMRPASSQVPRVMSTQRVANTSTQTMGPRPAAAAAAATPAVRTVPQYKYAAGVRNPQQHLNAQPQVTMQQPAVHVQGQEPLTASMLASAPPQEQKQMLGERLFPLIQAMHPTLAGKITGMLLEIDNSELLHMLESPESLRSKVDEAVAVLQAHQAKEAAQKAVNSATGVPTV
Test [25] concerns the target T4, Polyadenylate-binding protein 1. Nature of the test: PABP1 MLLE–PAM2 binding inhibitor potency, dose response, biochemical, fluorescence polarization, FITC-PAM2 peptide (AID 602259). Format: functional. The conditions noted are these: read-out: IC50_Mean.
In another test the target is T5, Estrogen receptor (Homo sapiens, UniProt P03372).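 Note: potency for inhibiting coactivator peptide recruitment to the receptor.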
T5 sequence (P03372 whole entry): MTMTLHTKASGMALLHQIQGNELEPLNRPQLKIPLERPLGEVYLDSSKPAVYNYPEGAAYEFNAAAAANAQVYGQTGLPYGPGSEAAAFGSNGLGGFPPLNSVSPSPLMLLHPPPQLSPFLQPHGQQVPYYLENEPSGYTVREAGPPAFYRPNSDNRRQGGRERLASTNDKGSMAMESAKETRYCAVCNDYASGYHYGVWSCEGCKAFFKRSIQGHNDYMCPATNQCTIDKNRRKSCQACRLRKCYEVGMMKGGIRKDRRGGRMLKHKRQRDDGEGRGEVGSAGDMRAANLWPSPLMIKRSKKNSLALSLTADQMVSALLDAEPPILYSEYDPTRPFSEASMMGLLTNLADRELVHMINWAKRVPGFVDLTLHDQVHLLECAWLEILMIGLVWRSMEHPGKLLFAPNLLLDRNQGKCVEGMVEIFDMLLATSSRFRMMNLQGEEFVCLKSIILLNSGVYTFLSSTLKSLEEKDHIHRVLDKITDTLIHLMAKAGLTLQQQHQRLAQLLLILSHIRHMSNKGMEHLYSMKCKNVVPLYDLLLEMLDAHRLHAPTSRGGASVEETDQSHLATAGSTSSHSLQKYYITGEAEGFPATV

Test [26] is described as follows: cytotoxicity in KRAS-transformed pancreatic duct cells, primary screen, cell-based, fluorescence, HTS (AID 431).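 Note: cell line used: HPDE-C7K.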 The conditions noted are these: Homo sapiens. In kind it is functional.
Test [27] is described as follows: cytotoxicity in HPDE-C7 cells, cell-based, fluorescence, HTS (AID 430). As to conditions: Homo sapiens. Format: functional.

By EC50 is commonly meant the midpoint of the concentration-response curve.

Consider `CSc1ccccc1-c1nnc(S)o1`, for which the concentration giving a half-maximal response (EC50) on Streptokinase A was > 150 µM (not active); in [1], > 150 µM (not active); in test [2], 4.77 µM (active); in test [3], 22.3 µM (inactive); in the test on Streptococcus, > 150 µM (not active); in test [4], > 79.4 µM (not active).
For the compound `C/C(=N\NC(=O)c1ccccc1F)c1ccccn1`, the IC50 is 9.17 µM (active) in the test with HEK293 [5]; 5.72 µM (active) on Nonstructural protein 1; 3.76 µM (inactive) with HEK293 [9]; > 20 µM (inactive) with HEK293 [11]; > 20 µM (inactive) in the test with HEK293 [13]. For the same compound, the 50% effective concentration (EC50) with HEK293 [6] is 18 µM (active); in test [7], > 20 µM (inactive); with BJ [8] it was 4.68 µM (inconclusive); in test [10], 2.9 µM (active); with BJ [12], 12 µM (inconclusive); with BJ [14], 10.9 µM (active).
For `CC[n+]1c(/C=C/N(C)c2ccccc2)n(-c2ccccc2)c2ccc(-c3nc4ccccc4s3)cc21`, the IC50 was 9.83 µM (active) in test [15], 13.2 µM (active) at Bcl-2-related protein A1 and 7.42 µM (active) in test [21]. Further, the EC50 on Streptokinase A is 13.3 µM (active); in test [16] it was 0.35 µM (active); in test [17], > 32 µM (inactive); with BJ [8], 2.93 µM (inconclusive); in [18] it was 90 µM (active); in test [1], 3.27 µM (active). Moreover, the EC50 in test [19] is 5.72 µM (active); in test [10], 3.03 µM (active); in the test on BJ [12], 2.49 µM (inconclusive); in the test on Streptococcus, 12 µM (active); in test [22], 0.337 µM (active); in test [23], 0.387 µM (active). Moreover, the EC50 with BJ [14] was 2.7 µM (inconclusive). For the same compound, in [20], the CC50 was 3.06 µM (active).
As to `CCOC(=O)c1sc(=S)n(-c2ccccc2Cl)c1SC`, the values for the concentration giving a half-maximal response (EC50) in [2], in test [3] and in test [4] were 12.5 µM (not active), 10.7 µM (inactive) and > 79.4 µM (not active), respectively. The IC50 in test [24] and in test [25] was > 66 µM (inactive) each time.
On to `Cc1ccc2nc(NC(=O)CSc3ncnc4c3oc3ccccc34)sc2c1`, for which the EC50 in [2] was > 79.4 µM (not active); in test [3] it was > 79.4 µM (inactive); in [4], > 79.4 µM (not active).
Consider `Cc1ccc(-c2nn3c(C)nnc3s2)cc1NC(=O)c1ccc(-c2cccc(Cl)c2)o1`, for which, at Estrogen receptor, the IC50 is > 50 µM (not active). Besides, the EC50 in test [17] was 17.7 µM (inactive); in test [26] it was 17.7 µM (active); in test [27] it was 15.4 µM (active).
As to `CCc1c(C)nc2ccc(Br)cc2c1SCCC#N`, the IC50 in the test with HEK293 [5] is 1.29 µM (active); in the test with HEK293 [9], 1.74 µM (active); in the test on HEK293 [11] it was > 20 µM (inactive); with HEK293 [13], > 20 µM (inactive). In addition, the EC50 with HEK293 [6] was 3.05 µM (active); in [7], 3.84 µM (active).
